Reference: US11142515B2, “Pyrazolyl-ureas as kinase inhibitors” (RESPIVERT LIMITED, priority 2014, dated 2021)
pIC50: −log10 of the molar value.

Key:
[1] = target: T1, p38 MAPKα isoform (MAPK14) (Homo sapiens, UniProt Q16539); assay: p38 MAPKα enzyme inhibition (Z-LYTE FRET); format: biochemical; settings: Table 2B, unit inferred; read-out: p38 MAPKα (Enzyme Profile)
T1 construct: purchased Life Technologies
Procedure, shortened: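 Activity was measured indirectly as phosphorylation of a MAPKAP-K2-derived FRET peptide. Enzyme (added at 40 ng/mL) was preincubated 2 h at RT with compound (added solutions 40–0.0012 μg/mL).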

p38MAPKγ (MAPK12) = target: T2, p38MAPKγ (MAPK12) (Homo sapiens, UniProt P53778); assay: p38 MAPKγ enzyme inhibition (Z-LYTE FRET); format: biochemical; settings: Table 2B, unit inferred; read-out: p38 MAPKγ (Enzyme Profile)
T2 construct: purchased Life Technologies
T2 sequence (P53778 1-367): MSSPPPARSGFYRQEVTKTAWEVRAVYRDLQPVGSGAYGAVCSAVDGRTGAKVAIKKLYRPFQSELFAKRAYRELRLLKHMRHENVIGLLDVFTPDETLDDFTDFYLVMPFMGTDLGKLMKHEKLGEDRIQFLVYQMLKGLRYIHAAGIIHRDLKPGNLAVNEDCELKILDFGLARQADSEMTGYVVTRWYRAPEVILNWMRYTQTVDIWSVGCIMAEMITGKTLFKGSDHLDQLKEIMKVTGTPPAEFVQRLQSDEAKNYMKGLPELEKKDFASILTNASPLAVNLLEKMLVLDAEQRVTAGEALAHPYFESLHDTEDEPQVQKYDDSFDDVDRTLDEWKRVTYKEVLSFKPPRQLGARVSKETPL
Procedure, shortened: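 Enzyme (added at 800 ng/mL) was preincubated 2 h at RT with compound (solutions of 40 to 0.0012 μg/mL), then FRET peptide (8 μM) and ATP (400 μM), both as added, were reacted 1 h at RT. Protease development followed for 1 h; phosphorylation was read as the coumarin/fluorescein emission ratio.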

T1 sequence (Q16539 whole entry, canonical isoform): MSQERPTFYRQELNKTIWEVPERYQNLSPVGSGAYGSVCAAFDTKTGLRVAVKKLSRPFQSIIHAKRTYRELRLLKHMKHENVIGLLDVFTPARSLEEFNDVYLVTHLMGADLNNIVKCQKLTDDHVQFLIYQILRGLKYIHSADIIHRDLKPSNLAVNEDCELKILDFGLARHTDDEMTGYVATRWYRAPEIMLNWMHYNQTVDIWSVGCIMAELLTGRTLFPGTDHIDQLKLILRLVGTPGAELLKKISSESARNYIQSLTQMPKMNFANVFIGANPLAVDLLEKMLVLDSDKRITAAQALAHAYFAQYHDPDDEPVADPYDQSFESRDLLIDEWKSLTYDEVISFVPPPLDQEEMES

Row | SMILES | pIC50 [1] | pIC50 (p38MAPKγ (MAPK12))
1 | COc1cc(-n2nc(C(C)(C)C)cc2NC(=O)Nc2ccc(OCc3ccnc(Nc4cnc(C)c(C)n4)c3)c3ccccc23)ccc1C [Example 208, 1-(3-(tert-butyl)-1-(3-methoxy-4-methylphenyl)-1H-pyrazol-5-yl)-3-(4-((2-((5,6-dimethylpyrazin-2-yl)amino)pyridin-4-yl)methoxy)naphthalen-1-yl) urea] | 7.30 | < 4.82
2 | COc1cnc(Nc2cc(COc3ccc(NC(=O)Nc4cc(C(C)(C)C)nn4-c4ccc(C)cc4)c4ccccc34)ccn2)cn1 [Example 105, 1-(3-(tert-butyl)-1-(p-tolyl)-1H-pyrazol-5-yl)-3-(4-((2-((5-methoxypyrazin-2-yl)amino)pyridin-4-yl)methoxy)naphthalen-1-yl) urea] | > 8.80 | 5.34
3 | COc1cc(C)cc(-n2nc(C(C)(C)C)cc2NC(=O)Nc2ccc(OCc3ccnc(Nc4cnccn4)c3)c3ccccc23)c1 [Example 196, 1-(3-(tert-butyl)-1-(3-methoxy-5-methylphenyl)-1H-pyrazol-5-yl)-3-(4-((2-(pyrazin-2-ylamino)pyridin-4-yl)methoxy)naphthalen-1-yl)urea] | 7.54 | 6.66
4 | Cc1ccc(-n2nc(C(C)(C)C)cc2NC(=O)Nc2ccc(OCc3ccnc(Nc4cncc(C(C)C)n4)c3)c3ccccc23)cc1 [Example 68] | 6.88 | 6.20
5 | CCOc1cccc(-n2nc(C(C)(C)C)cc2NC(=O)Nc2ccc(OCc3ccnc(Nc4cnccn4)c3)c3ccccc23)c1 [Example 184, 1-(3-(tert-butyl)-1-(3-ethoxyphenyl)-1H-pyrazol-5-yl)-3-(4-((2-(pyrazin-2-ylamino)pyridin-4-yl)methoxy)naphthalen-1-yl) urea] | 7.72 | < 4.80
6 | Cc1cccc(-n2nc(C(C)(C)C)cc2NC(=O)Nc2ccc(OCc3ccnc(Nc4cncc(C5CC5)n4)c3)c3ccccc23)c1 [Example 160, 1-(3-(tert-butyl)-1-(m-tolyl)-1H-pyrazol-5-yl)-3-(4-((2-((6-cyclopropylpyrazin-2-yl)amino)pyridin-4-yl)methoxy)naphthalen-1-yl) urea] | 7.47 | 6.29
7 | COc1cc(F)cc(-n2nc(C(C)(C)C)cc2NC(=O)Nc2ccc(OCc3ccnc(Nc4cnc(C(=O)N5CCCC5)cn4)c3)c3ccccc23)c1 [Example 250, 1-(3-(tert-butyl)-1-(3-fluoro-5-methoxyphenyl)-1H-pyrazol-5-yl)-3-(4-((2-((5-(pyrrolidine-1-carbonyl)pyrazin-2-yl)amino)pyridin-4-yl)methoxy)naphthalen-1-yl)urea] | 7.96 | < 4.86
8 | Cc1ccc(-n2nc(C(C)(C)C)cc2NC(=O)Nc2ccc(OCc3ccnc(Nc4cnc(C(=O)N5C[C@@H](C)O[C@@H](C)C5)cn4)c3)c3ccccc23)cc1 [Example 214, 1-(3-(tert-butyl)-1-(p-tolyl)-1H-pyrazol-5-yl)-3-(4-((2-((5-((2S,6R)-2,6-dimethyl-morpholine-4-carbonyl)pyrazin-2-yl)amino)pyridin-4-yl)methoxy)naphthalen-1-yl)urea] | 7.51 | 5.71
9 | COCCCc1cncc(Nc2cc(COc3ccc(NC(=O)Nc4cc(C(C)(C)C)nn4-c4ccc(C)cc4)c4ccccc34)ccn2)n1 [Example 153, 1-(3-(tert-butyl)-1-(p-tolyl)-1H-pyrazol-5-yl)-3-(4-((2-((6-(3-methoxypropyl)pyrazin-2-yl)amino)pyridin-4-yl)methoxy)naphthalen-1-yl)urea] | 7.70 | 7.11
10 | COc1ccc(-n2nc(C(C)(C)C)cc2NC(=O)Nc2ccc(OCc3ccnc(Nc4cnc(C)c(C)n4)c3)c3ccccc23)cc1C [Example 135, 1-(3-(tert-butyl)-1-(4-methoxy-3-methylphenyl)-1H-pyrazol-5-yl)-3-(4-((2-((5,6-dimethylpyrazin-2-yl)amino)pyridin-4-yl)methoxy)naphthalen-1-yl) urea] | 7.28 | < 4.82
11 | Cc1cccc(-n2nc(C(C)(C)C)cc2NC(=O)Nc2ccc(OCc3ccnc(Nc4cnc(C)c(C)n4)c3)c3ccccc23)c1 [Example 58] | 7.74 | 6.36
12 | Cc1ccc(-n2nc(C(C)(C)C)cc2NC(=O)Nc2ccc(OCc3ccnc(Nc4cnc(C(=O)N5CCNC(=O)C5)cn4)c3)c3ccccc23)cc1 [Example 249, 1-(3-(tert-butyl)-1-(p-tolyl)-1H-pyrazol-5-yl)-3-(4-((2-((5-(3-oxopiperazine-1-carbonyl)pyrazin-2-yl)amino)pyridin-4-yl)methoxy)naphthalen-1-yl)urea] | 8.44 | 7.34
13 | CCOc1cncc(Nc2cc(COc3ccc(NC(=O)Nc4cc(C(C)(C)C)nn4-c4ccc(C)cc4)c4ccccc34)ccn2)n1 [Example 116, 1-(3-(tert-butyl)-1-(p-tolyl)-1H-pyrazol-5-yl)-3-(4-((2-((6-ethoxypyrazin-2-yl)amino)pyridin-4-yl)methoxy)naphthalen-1-yl)urea] | 7.64 | 5.55
14 | COCc1cccc(-n2nc(C(C)(C)C)cc2NC(=O)Nc2ccc(OCc3ccnc(Nc4cnc(C(=O)N5CCCC5)cn4)c3)c3ccccc23)c1 [Example 71] | 7.62 | 6.57
15 | COc1ccc(-n2nc(C(C)(C)C)cc2NC(=O)Nc2ccc(OCc3ccnc(Nc4cncc(N(C)C)n4)c3)c3ccccc23)cc1 [Example 104, 1-(3-(tert-butyl)-1-(4-methoxyphenyl)-1H-pyrazol-5-yl)-3-(4-((2-((6-(dimethyl-amino)pyrazin-2-yl)amino)pyridin-4-yl)methoxy)naphthalen-1-yl)urea] | 8.05 | 6.65
16 | COc1cncc(Nc2cc(COc3ccc(NC(=O)Nc4cc(C(C)(C)C)nn4-c4csc(C)c4)c4ccccc34)ccn2)n1 [Example 113, 1-(3-(tert-butyl)-1-(5-methylthiophen-3-yl)-1H-pyrazol-5-yl)-3-(4-((2-((6-methoxypyrazin-2-yl)amino)pyridin-4-yl)methoxy)naphthalen-1-yl) urea] | 7.43 | 5.49
17 | Cc1ccc(-n2nc(C(C)(C)C)cc2NC(=O)Nc2ccc(OCc3ccnc(Nc4cncc(N5CCOCC5)n4)c3)c3ccccc23)cc1 [Example 118, 1-(3-(tert-butyl)-1-(p-tolyl)-1H-pyrazol-5-yl)-3-(4-((2-((6-morpholinopyrazin-2-yl)amino)pyridin-4-yl)methoxy)naphthalen-1-yl) urea] | 8.26 | 6.94
18 | Cc1ncc(Nc2cc(COc3ccc(NC(=O)Nc4cc(C(C)(C)C)nn4-c4cccc(F)c4)c4ccccc34)ccn2)nc1C [Example 169, 1-(3-(tert-butyl)-1-(3-fluorophenyl)-1H-pyrazol-5-yl)-3-(4-((2-((5,6-dimethylpyrazin-2-yl)amino)pyridin-4-yl)methoxy)naphthalen-1-yl)urea] | 7.59 | 6.35
19 | Cc1cccc(-n2nc(C(C)(C)C)cc2NC(=O)Nc2ccc(OCc3ccnc(Nc4cnc(CO)cn4)c3)c3ccccc23)c1 [Example 61] | 8.25 | 7.49
20 | CCc1cccc(-n2nc(C(C)(C)C)cc2NC(=O)Nc2ccc(OCc3ccnc(Nc4cnccn4)c3)c3ccccc23)c1 [Example 165, 1-(3-(tert-butyl)-1-(3-ethyl-phenyl)-1H-pyrazol-5-yl)-3-(4-((2-(pyrazin-2-ylamino)pyridin-4-yl)methoxy)naphthalen-1-yl) urea] | 7.92 | 6.89
21 | COCc1cccc(-n2nc(C(C)(C)C)cc2NC(=O)Nc2ccc(OCc3ccnc(Nc4cnc(CN5CCOCC5)cn4)c3)c3ccccc23)c1 [Example 262, 1-(3-(tert-butyl)-1-(3-(methoxymethyl)phenyl)-1H-pyrazol-5-yl)-3-(4-((2-((5-(morpholinomethyl)pyrazin-2-yl)amino)pyridin-4-yl)methoxy)naphthalen-1-yl)urea] | 7.96 | 6.76
22 | CCc1cncc(Nc2cc(COc3ccc(NC(=O)Nc4cc(C(C)(C)C)nn4-c4cc(C)cc(C)c4)c4ccccc34)ccn2)n1 [Example 212, 1-(3-(tert-butyl)-1-(3,5-dimethylphenyl)-1H-pyrazol-5-yl)-3-(4-((2-((6-ethyl-pyrazin-2-yl)amino)pyridin-4-yl)methoxy)naphthalen-1-yl)urea] | 7.05 | < 4.81
23 | COCc1cccc(-n2nc(C(C)(C)C)cc2NC(=O)Nc2ccc(OCc3ccnc(Nc4cnccn4)c3)c3ccccc23)c1 [Example 166, 1-(3-(tert-butyl)-1-(3-(methoxymethyl)phenyl)-1H-pyrazol-5-yl)-3-(4-((2-(pyrazin-2-ylamino)pyridin-4-yl)methoxy)naphthalen-1-yl)urea] | 8.21 | 7.28
24 | COc1cc(-n2nc(C(C)(C)C)cc2NC(=O)Nc2ccc(OCc3ccnc(Nc4cnccn4)c3)c3ccccc23)ccc1C [Example 57] | 7.82 | 6.64
